Activity calls are given as the source filed them. The calls are words filed in the database; no cut-off is given here.
Assays:
[1] = target: D(2) dopamine receptor (Homo sapiens) (UniProt P14416); assay: Tested in vitro for binding activity to Dopamine receptor D2 in field stimulated rabbit ear artery (D2-REA); f denotes 'Data compromised by high […] agonist activity'; details: Oryctolagus cuniculus; target entry is the homologue from another species
[2] = target: Beta-2 adrenergic receptor (Cavia porcellus) (UniProt Q8K4Z4); assay: Tested in vitro for binding activity to Beta-2 adrenergic receptor in guinea pig trachea (GPT).; format: tissue-based
[3] = target: D(2) dopamine receptor (Bos taurus) (UniProt P20288); assay: Tested in vitro for binding activity to Dopamine receptor D2 in bovine pituitary membranes (D2-LB); format: cell membranes
[4] = target: Adrenergic receptor alpha-1 (Homo sapiens) (UniProt P35348+P25100+P35368); assay: Tested in vitro for binding activity to Alpha-1 adrenergic receptor in field stimulated rabbit ear artery (REA).; details: Oryctolagus cuniculus; target entry is the homologue from another species
[5] = target: D(2) dopamine receptor (Homo sapiens) (UniProt P14416); assay: Tested in vitro for binding activity to Dopamine receptor D2 in field stimulated rabbit ear artery (D2-REA).; details: Oryctolagus cuniculus; target entry is the homologue from another species

Sequence of D(2) dopamine receptor (Bos taurus) (P20288 whole entry): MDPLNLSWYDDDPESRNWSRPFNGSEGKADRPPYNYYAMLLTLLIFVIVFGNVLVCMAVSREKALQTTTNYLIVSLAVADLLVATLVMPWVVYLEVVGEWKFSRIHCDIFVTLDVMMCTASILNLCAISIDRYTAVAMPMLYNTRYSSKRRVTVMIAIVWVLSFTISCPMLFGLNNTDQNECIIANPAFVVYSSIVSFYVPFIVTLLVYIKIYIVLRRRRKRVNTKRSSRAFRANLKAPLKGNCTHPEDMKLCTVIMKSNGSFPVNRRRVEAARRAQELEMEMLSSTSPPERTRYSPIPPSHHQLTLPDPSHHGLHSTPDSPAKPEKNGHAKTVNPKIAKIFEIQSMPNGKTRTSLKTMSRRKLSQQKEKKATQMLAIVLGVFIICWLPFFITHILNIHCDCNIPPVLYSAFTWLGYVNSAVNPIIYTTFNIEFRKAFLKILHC
Sequence of Beta-2 adrenergic receptor (Cavia porcellus) (Q8K4Z4 whole entry, looked up): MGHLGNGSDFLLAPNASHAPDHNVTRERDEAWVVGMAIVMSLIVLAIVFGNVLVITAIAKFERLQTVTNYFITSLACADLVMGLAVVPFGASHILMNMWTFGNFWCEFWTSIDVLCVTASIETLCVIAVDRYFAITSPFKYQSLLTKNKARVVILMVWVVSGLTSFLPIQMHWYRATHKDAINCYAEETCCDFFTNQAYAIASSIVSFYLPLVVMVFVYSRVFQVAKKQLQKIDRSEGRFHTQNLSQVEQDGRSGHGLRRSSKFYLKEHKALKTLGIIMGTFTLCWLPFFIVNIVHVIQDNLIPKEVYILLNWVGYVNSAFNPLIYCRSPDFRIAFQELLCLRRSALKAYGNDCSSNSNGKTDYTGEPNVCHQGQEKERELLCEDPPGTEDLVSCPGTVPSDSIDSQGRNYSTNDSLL
Sequence of D(2) dopamine receptor (Homo sapiens) (P14416 whole entry): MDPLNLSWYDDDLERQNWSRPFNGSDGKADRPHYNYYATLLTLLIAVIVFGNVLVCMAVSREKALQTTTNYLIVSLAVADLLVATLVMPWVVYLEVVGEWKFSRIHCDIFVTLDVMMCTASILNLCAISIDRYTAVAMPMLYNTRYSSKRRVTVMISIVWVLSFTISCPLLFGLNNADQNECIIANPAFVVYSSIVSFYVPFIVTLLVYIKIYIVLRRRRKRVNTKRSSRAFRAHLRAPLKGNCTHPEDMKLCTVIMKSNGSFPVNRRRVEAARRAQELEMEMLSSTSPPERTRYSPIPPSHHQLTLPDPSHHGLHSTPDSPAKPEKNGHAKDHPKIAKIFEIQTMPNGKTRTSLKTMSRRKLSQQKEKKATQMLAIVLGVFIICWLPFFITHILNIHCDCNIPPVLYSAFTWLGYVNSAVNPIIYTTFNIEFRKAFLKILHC

| p[A]50 [1] | p[A]50 [2] | pKH [3] | pKL [3] | p[A]50 [4] | p[A]50 [5] | Structure (SMILES) |
| --- | --- | --- | --- | --- | --- | --- |
| inactive | 7.89 | 9.01 | 6.93 | 7.56 |  | Oc1nc2c(O)ccc(CCNCCCCCCOCCc3ccccc3)c2s1 |
|  | < 5 | 9.34 | 6.85 | 6.03 | 9.6 | CCCN(CCC)CCc1ccc(O)c2nc(O)sc12 |

More lines, now with the values behind:

| Structure (SMILES) | p[A]50 [1] | p[A]50 [2] | pKH [3] | pKL [3] | p[A]50 [4] | p[A]50 [5] |
| --- | --- | --- | --- | --- | --- | --- |
| Oc1nc2c(O)ccc(CCNCCCCCCOCCCCc3ccccc3)c2s1 | inactive | 7.33 | 9.33 | 7.11 | 6.85 |  |
| Oc1nc2c(O)ccc(CCNCCCCCCNCCc3ccccc3)c2s1 | inactive | 7.19 | 8.99 | 6.44 | 6.81 |  |
| OCc1cc(C(O)CNCCCCCCOCCCCc2ccccc2)ccc1O (configuration not stated) |  | 7.52 |  |  | 5.49 |  |
| O=c1[nH]c2c(O)ccc(CCNCCS(=O)(=O)CCCOCCc3ccccc3)c2s1 |  | 7.95 | 8.61 | 6.48 | 6.08 | 8.94 |

— ChEMBL document CHEMBL1131414, “Dual D2-receptor and beta2-adrenoceptor agonists for the treatment of airway diseases. 1. Discovery and biological evaluation of some 7-(2-aminoethyl)-4-hydroxybenzothiazol-2(3H)-one analogues” (J Med Chem, 1998)
